Reference: PMC4853478 (Nature Communications, 2016)

Experiments:
HsPRC2_4 [1] = molecular target: T1, HsPRC2_4 (Homo sapiens, UniProt Q15910); test: Inhibition of basal and activated states of HsPRC2_4; type: biochemical; details: for Ki: SAM above Km, mean of two independent experiments
T1 construct: intact HsPRC2_4 (full-length EZH2 (EZH2_FL) and SUZ12 co-migrate on SDS-PAGE); made in house; host or cells: Sf9 insect cells (baculovirus co-infection)

HsPRC2_4 (Y641N/Y661D) = molecular target: T2, HsPRC2_4 (Y641N/Y661D) (Homo sapiens, UniProt Q15910, Y641N/Y661D); test: Radioactive filter-binding histone methyltransferase assay, HsPRC2_4 (Y641N/Y661D), oligonucleosome substrate; type: biochemical
T2 construct: intact HsPRC2_4 (full-length EZH2 (EZH2_FL) and SUZ12 co-migrate on SDS-PAGE); made in house; host or cells: Sf9 insect cells (baculovirus co-infection)
From the text: (§1) (Prism, Graphpad Software Inc.).

Hs/AcPRC2_X = Hs/AcPRC2_X (Anolis carolinensis, UniProt G1KPH4, DEL368-454, form not given); details: rH3 substrate; n=2, mean±s.d.
HsPRC2_4 (Y641N) = molecular target: T3, HsPRC2_4 (Y641N) (Homo sapiens, UniProt Q15910, Y641N); test: Radioactive filter-binding histone methyltransferase assay, HsPRC2_4 (Y641N), oligonucleosome substrate; type: biochemical
T3 construct: intact HsPRC2_4 (full-length EZH2 (EZH2_FL) and SUZ12 co-migrate on SDS-PAGE); made in house; host or cells: Sf9 insect cells (baculovirus co-infection)
From the text: as §1

HsPRC2_4 (Y111L) = molecular target: T4, HsPRC2_4 (Y111L) (Homo sapiens, UniProt Q15910, Y111L); test: Radioactive filter-binding histone methyltransferase assay, HsPRC2_4 (Y111L), oligonucleosome substrate; type: biochemical
T4 construct: intact HsPRC2_4 (full-length EZH2 (EZH2_FL) and SUZ12 co-migrate on SDS-PAGE); made in house; host or cells: Sf9 insect cells (baculovirus co-infection)
From the text: as §1

HsPRC2_4 [2] = molecular target: T1, HsPRC2_4; test: Radioactive filter-binding histone methyltransferase assay, intact HsPRC2_4, oligonucleosome substrate; type: biochemical
From the text: as §1

PRC2 = molecular target: PRC2; set-up: method as in PMID 24304166; details: activated versus basal PRC2; cited from earlier work
[3] = oligonucleosome substrate, n=2, mean±s.d.

T1 sequence (Q15910 whole entry): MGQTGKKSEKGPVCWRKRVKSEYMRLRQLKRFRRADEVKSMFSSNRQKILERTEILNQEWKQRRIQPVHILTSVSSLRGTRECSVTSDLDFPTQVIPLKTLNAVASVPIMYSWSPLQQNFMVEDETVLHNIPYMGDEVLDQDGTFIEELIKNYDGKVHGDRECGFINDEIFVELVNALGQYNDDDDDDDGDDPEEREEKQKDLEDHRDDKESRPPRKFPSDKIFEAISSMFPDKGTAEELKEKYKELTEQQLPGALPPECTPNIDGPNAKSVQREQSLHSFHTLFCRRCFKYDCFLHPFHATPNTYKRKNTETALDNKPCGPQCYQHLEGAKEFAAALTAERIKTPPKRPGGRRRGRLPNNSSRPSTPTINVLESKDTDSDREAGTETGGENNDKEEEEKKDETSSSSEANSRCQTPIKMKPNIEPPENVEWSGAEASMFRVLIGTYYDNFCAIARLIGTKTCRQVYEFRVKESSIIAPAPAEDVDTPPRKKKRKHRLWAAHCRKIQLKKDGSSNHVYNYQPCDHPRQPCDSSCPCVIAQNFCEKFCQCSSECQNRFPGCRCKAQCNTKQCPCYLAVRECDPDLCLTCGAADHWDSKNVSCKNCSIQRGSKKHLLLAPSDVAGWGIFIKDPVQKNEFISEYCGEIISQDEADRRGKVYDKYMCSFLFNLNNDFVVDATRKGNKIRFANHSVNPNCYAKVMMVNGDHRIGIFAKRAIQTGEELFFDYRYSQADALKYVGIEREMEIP
T1 sequence (O75530 whole entry partner): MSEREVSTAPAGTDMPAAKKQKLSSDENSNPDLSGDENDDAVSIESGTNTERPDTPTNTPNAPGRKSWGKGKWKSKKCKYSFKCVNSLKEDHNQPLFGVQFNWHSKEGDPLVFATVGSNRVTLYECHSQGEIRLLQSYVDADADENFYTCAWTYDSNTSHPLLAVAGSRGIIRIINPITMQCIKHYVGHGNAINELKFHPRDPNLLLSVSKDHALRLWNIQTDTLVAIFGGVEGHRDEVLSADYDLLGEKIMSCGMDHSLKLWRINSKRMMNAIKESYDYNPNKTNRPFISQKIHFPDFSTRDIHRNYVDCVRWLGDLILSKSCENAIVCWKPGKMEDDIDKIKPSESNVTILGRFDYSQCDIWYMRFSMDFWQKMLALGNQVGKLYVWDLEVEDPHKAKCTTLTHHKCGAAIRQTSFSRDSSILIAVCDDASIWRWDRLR
T1 sequence (Q15022 whole entry partner): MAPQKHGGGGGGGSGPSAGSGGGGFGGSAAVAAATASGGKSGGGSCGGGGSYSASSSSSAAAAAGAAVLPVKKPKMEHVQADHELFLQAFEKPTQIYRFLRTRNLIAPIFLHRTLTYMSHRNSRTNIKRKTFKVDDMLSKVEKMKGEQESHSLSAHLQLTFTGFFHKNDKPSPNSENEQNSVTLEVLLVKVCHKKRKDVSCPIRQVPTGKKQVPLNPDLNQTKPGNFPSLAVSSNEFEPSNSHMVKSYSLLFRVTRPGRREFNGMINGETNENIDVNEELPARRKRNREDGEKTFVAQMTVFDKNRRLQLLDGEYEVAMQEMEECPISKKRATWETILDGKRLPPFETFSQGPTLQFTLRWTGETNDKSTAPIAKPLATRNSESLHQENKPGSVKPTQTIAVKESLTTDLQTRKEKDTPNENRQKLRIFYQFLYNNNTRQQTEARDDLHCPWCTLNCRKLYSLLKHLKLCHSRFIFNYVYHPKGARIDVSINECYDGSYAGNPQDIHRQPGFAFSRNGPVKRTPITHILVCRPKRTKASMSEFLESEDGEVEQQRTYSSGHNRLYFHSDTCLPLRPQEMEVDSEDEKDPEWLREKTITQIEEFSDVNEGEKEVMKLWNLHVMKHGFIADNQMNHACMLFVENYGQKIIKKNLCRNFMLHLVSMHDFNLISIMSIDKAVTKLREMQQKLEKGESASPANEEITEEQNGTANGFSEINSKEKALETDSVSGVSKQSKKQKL
T1 sequence (Q09028 whole entry partner): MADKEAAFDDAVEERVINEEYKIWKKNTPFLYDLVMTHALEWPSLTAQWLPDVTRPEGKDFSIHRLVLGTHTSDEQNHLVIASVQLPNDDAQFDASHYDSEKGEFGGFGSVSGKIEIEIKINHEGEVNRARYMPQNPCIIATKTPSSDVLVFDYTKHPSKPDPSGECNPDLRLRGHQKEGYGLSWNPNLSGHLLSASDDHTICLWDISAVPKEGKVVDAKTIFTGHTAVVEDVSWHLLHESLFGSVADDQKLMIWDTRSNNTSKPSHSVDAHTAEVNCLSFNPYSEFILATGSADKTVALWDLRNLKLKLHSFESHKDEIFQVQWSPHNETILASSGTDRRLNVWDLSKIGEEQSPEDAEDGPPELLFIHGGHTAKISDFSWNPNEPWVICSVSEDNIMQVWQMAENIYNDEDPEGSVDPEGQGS
T4 sequence (Q15910 whole entry Y111L): as the sequence (Q15910 whole entry) above, with Y111L counted along it
T4 sequence (O75530 whole entry partner): as the sequence (O75530 whole entry partner) above
T4 sequence (Q15022 whole entry partner): as the sequence (Q15022 whole entry partner) above
T4 sequence (Q09028 whole entry partner): as the sequence (Q09028 whole entry partner) above
T3 sequence (Q15910 whole entry Y641N): as the sequence (Q15910 whole entry) above, with Y641N counted along it
T3 sequence (O75530 whole entry partner): as the sequence (O75530 whole entry partner) above
T3 sequence (Q15022 whole entry partner): as the sequence (Q15022 whole entry partner) above
T3 sequence (Q09028 whole entry partner): as the sequence (Q09028 whole entry partner) above
T2 sequence (Q15910 whole entry Y641N/Y661D): as the sequence (Q15910 whole entry) above, with Y641N, Y661D counted along it
T2 sequence (O75530 whole entry partner): as the sequence (O75530 whole entry partner) above
T2 sequence (Q15022 whole entry partner): as the sequence (Q15022 whole entry partner) above
T2 sequence (Q09028 whole entry partner): as the sequence (Q09028 whole entry partner) above
Sequence of Hs/AcPRC2_X (G1KPH4 entry or part of it DEL368-454, form open): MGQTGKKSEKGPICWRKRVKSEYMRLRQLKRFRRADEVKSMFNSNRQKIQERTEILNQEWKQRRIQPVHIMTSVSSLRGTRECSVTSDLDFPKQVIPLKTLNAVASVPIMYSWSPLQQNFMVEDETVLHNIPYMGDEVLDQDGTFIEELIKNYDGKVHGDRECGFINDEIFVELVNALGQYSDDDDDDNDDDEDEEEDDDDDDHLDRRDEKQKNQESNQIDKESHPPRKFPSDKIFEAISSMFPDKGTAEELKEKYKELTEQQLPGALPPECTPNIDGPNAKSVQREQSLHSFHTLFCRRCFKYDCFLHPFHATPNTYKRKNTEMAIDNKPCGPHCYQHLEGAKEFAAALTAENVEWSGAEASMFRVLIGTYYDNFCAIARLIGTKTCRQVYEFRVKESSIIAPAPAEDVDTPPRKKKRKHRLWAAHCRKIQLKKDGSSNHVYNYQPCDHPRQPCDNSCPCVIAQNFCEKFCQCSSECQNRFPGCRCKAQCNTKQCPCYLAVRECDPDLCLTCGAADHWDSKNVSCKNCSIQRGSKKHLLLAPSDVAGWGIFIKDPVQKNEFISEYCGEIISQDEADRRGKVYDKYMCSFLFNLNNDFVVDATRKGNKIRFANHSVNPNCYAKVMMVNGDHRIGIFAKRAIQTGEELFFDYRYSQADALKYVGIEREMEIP
Sequence of Hs/AcPRC2_X (Q15022 545-726 S583D, form open, further chain): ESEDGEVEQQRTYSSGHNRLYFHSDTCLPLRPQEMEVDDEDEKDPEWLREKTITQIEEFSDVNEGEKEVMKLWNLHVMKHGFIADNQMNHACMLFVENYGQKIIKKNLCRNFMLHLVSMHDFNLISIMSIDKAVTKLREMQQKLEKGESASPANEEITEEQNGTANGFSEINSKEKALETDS
Sequence of Hs/AcPRC2_X (O75530 81-441, stated change not applied, form open, further chain): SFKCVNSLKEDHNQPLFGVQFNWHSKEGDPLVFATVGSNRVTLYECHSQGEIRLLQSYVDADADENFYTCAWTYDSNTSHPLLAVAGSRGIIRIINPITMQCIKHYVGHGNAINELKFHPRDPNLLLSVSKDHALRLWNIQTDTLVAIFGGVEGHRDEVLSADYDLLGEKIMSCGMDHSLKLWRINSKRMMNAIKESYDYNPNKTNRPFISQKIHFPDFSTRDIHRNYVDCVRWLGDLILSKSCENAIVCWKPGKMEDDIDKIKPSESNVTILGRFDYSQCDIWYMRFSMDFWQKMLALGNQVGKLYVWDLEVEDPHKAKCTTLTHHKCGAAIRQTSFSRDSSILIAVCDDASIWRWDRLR

## C[S+](CC[C@H](N)C(=O)[O-])C[C@H]1O[C@@H](n2cnc3c(N)ncnc32)[C@H](O)[C@@H]1O (stereo partly drawn) [SAM, S-adenosyl-L-methionine, reference compound]
HsPRC2_4 [1]; intact HsPRC2_4 complex, read-out: Km, SAM
  Km: 1.5 µM

## CCc1cc(C)[nH]c(=O)c1CN1CCc2c(Cl)cc(OC3CCN(C(=O)C(C)O)CC3)c(Cl)c2C1=O (stereo not drawn) [inhibitor 1]
HsPRC2_4 [1]; basal and stimulated states of HsPRC2_4
  Inhibition profile, basal versus stimulated state: almost identical
HsPRC2_4 [1]; in the presence of the activator peptide H3K27Me3 (21-44)
  Ki: 0.65 nM
HsPRC2_4 [1]; no activator
  Ki: 0.89 nM
HsPRC2_4 (Y641N/Y661D); Y641N/Y661D HsPRC2_4
  Biochemical inhibition: refractory
HsPRC2_4 (Y641N/Y661D); [3]
  Ki: 204 ± 16 nM
Hs/AcPRC2_X
  Ki: 3.1 ± 0.11 nM
HsPRC2_4 (Y641N); Y641N HsPRC2_4
  Sensitivity to inhibitor: sensitive
HsPRC2_4 (Y641N); [3]
  Ki: 4.56 ± 0.16 nM
HsPRC2_4 (Y111L); Y111L HsPRC2_4
  Biochemical inhibition: refractory
HsPRC2_4 (Y111L); [3]
  Ki: 116.4 ± 0.7 nM
HsPRC2_4 [2]; HsPRC2_4, linear relationship of IC50 with (SAM)/Km, two independent experiments
  Mode of inhibition (IC50 as a function of (SAM)/Km): SAM-competitive
HsPRC2_4 [2]; [3]
  Ki: 1.63 ± 0.13 nM

## CC[C@H](C)n1cc(C)c2c(C(=O)NCc3c(C)cc(C)[nH]c3=O)cc(-c3ccc(N4CCNCC4)nc3)cc21 [GSK126]
PRC2
  Ki on activation of PRC2 by H3K27Me3 mark: lower
  Residence time on activation of PRC2 by H3K27Me3 mark: increased
